Assay results: patent US11491127B2, “Therapeutic use of compounds” (UCL BUSINESS LTD, priority 2010, dated 2022)

How the values were obtained:
[1] = test system: inositol levels in Dictyostelium cells; assay: Inositol levels in treated Dictyostelium cells; type: cell-based, Dictyostelium discoideum; conditions: time period causing phosphoinositide attenuation (9 min)
Protocol: Following a 6 min incubation, labelling solution was removed and cells were lysed in acidified methanol and phospholipids were separated as previously detailed (Williams et al., 1999). Phospholipid labelling was quantified using a Typhoon phosphor-imager. Even loading was determined using total lipid stain with copper sulphate. Inositol levels were measured from five hour developed cells (similar to phospholipid labelling), following lyophilisation, as previously described (Maslanski & Busa, 1990).

[2] = test system: PTZ-induced epileptiform activity in entorhinal cortex-hippocampal slices; assay: In vitro PTZ acute seizure model, entorhinal cortex-hippocampus slices; type: cell-based, rat; conditions: PTZ 2 mM, [K+] 6 mM; compounds equimolar 1 mM; 30 to 40 minutes after application
Protocol: The rats (p21) were decapitated after killing by intraperitoneal injection with an overdose of pentobarbitone (500 mg/kg). The brain was removed and placed in ice-cold sucrose solution in mM: NaCl 87, KCl 2.5, MgCl2 7, CaCl2 0.5, NaH2PO4 1.25, sucrose 75, glucose 25, equilibrated with 95% 02/5% CO2 (pH 7.4). Horizontal combined entorhinal cortex-hippocampus slices (350 μm) were prepared with a Leica vibratome (Leica V T1200S) and were then stored in an interface chamber that contained artificial cerebrospinal fluid solution (aCSF) containing in mM: NaCl 119, KCl 2.5, MgSO4 4, CaCl2 4, NaHCO326.2, NaH2PO4 1, glucose 11, and gassed with 95% O2/5% CO2. They were stored for over one hour before being transferred to a submersion recording chamber continually perfused with carbogenated aCSF for recording. Field potential recordings were made by placing glass microelectrodes (˜1-2 MΩ) filled with aCSF solution in stratum radiatum of CA1. Bipolar stimulating electrodes were positioned in the Schaffer collateral/commissural fibre pathway in stratum radiatum to confirm slice viability. In the PTZ acute seizure model, PTZ (2 mM) was added to the perfusate and [K+] was increased to 6 mM in order to induce epileptiform activity (Armand et al., 1998). In the low Mg^2+ acute seizure model, Mg^2+ free aCSF was applied to generate rhythmic short recurrent discharges. Novel anticonvulsants were applied once the frequency and amplitude of the epileptiform discharges were stable over a period of 10 min. Anticonvulsant effects were evaluated by measuring the variation of frequency of the discharges every minute. The data acquired from the 30 to 40 minutes after application novel anticonvulsants were compared by ANOVA followed by post-hoc testing using Tukey test, using SPSS statistical analysis.

[3] = test system: lipid droplets in Dictyostelium cells; assay: Bodipy fatty acid lipid droplet accumulation; type: cell-based, Dictyostelium discoideum; conditions: 0.5 mM VPA; bodipy-labelled lipid
[4] = test system: inositol trisphosphate (InsP3) levels in Dictyostelium; conditions: Williams et al., 1999; cited from earlier work
[5] = test system: fatty acid CoA activation in Dictyostelium cell extracts; assay: Fatty acid activation (palmitic acid to PaA-CoA) in cell extracts; type: biochemical, Dictyostelium discoideum; conditions: VPA 1.0 mM with cell extracts or 10 min, 1 mM pre-treatment of cells
Protocol: Screening of a REMI library was carried out as previously described (Kuspa & Loomis, 2006) using A×2 background, with VPA resistant mutants selected for the ability to develop in the presence of 1 mM VPA on R. planticola. Identification of the ablated gene, enabled the identified PLAa (DDB_G0278525; SEQ ID NO: 16) to be recapitulated using by homologous recombination of a knockout cassette. Primers used for amplifying region within the open reading frame of the gene were (5′ […] (SEQ ID NO: 17) and 3′ […] (SEQ ID NO: 18), cloned by pCR2.1 TOPO (Invitrogen Ltd)), cloned into pUC19 using EcoRI digestion, and Sinai digested fragment from pBLPblp (Falx et al, 2004) was inserted into the EcoRV site of the insert. Genetic ablation was confirmed by PCR analysis. Developmental resistance to VPA was assessed by plating cells (1×10^6) on 47 mm nitrocellulose filters (Millipore) soaked in phosphate buffer containing either 1 mM VPA or control, and development was recorded after 30 h unless otherwise stated. Development images were observed using a Leica CLS 150× microscope and images recorded using QICAM FAST 1394 camera. Fatty acid activation was determined by the method established by Wilson et al. (Wilson et al, 1982) with slight modifications. […]

SMILES: CCCC(CCC)C(=O)O [VPA, 2-propylpentanoic acid, reference compound]
- reduction in inositol levels [1]: no significant reduction
- frequency of epileptiform discharges (seizure discharge frequency) [2]: 75.1±1.7%
- intensity and diameter of fluorescent lipid droplets compared to untreated cells [3]: increase
- treatment time required for depletion of inositol trisphosphate [4]: 6 h
- effect on fatty acid activation (PaA-CoA) [5]: no effect
